Source: ChEMBL document CHEMBL4507292 (2021)

Key:
[1] = molecular target: L-type calcium channel, benzothiazepine site (Cav1.2 alpha-1C) (Homo sapiens, UniProt Q13936); test: Inhibition of Calcium Channel L-Type, Benzothiazepine at 10 µM in the Eurofins-Panlabs radioligand binding assay (Eurofins_assay_214510); set-up: ligand concentration 2 nM, non-specific ligand with concentration 10 µM Diltiazem, incubation time 3h, incubation temperature 4 °C; conditions: male, Wistar, rat, rat whole brain preparation, probe [3H] Diltiazem, 2 nM; compound concentration 10 uM; target entry is the homologue from another species
[2] = molecular target: Voltage-dependent N-type calcium channel subunit alpha-1B (Homo sapiens) (UniProt Q00975); test: Inhibition of Calcium Channel N-Type at 10 µM in the Eurofins-Panlabs radioligand binding assay (Eurofins_assay_216000); conditions: Rattus norvegicus; Compound concentration 10.0 uM
Rattus norvegicus = organism: Rattus norvegicus; test: Inhibition of Glutamate, NMDA, Phencyclidine at 10 µM in the Eurofins-Panlabs radioligand binding assay (Eurofins_assay_233000); assay type: protein-complex assay
[3] = molecular target: ATP-sensitive inward rectifier potassium channel 11 (Cricetulus griseus) (UniProt A0A3L7HHE1); test: Inhibition of Potassium Channel [KATP] at 10 µM in the Eurofins-Panlabs radioligand binding assay (Eurofins_assay_265600); conditions: Cricetinae; Compound concentration 10.0 uM
[4] = molecular target: 5-hydroxytryptamine receptor 1A (Homo sapiens, UniProt P08908); test: Inhibition of Serotonin (5-Hydroxytryptamine) 5-HT1A at compound concentration of 10.0 uM in the Eurofins-Panlabs radioligand binding assay (Eurofins_assay_271110); set-up: ligand concentration 1.5 nM, non-specific ligand with concentration 10 uM Metergoline, incubation time 60 min, incubation temperature 25 C
[5] = molecular target: Sodium-dependent dopamine transporter (Homo sapiens, UniProt Q01959); test: Inhibition of Transporter, Dopamine (DAT) at compound concentration of 10.0 uM in the Eurofins-Panlabs radioligand binding assay (Eurofins_assay_220320); set-up: ligand concentration 0.15 nM, non-specific ligand with concentration 10 uM Nomifensine, incubation time 3 h, incubation temperature 4 C
Chain of Sodium-dependent dopamine transporter (Q01959 whole entry): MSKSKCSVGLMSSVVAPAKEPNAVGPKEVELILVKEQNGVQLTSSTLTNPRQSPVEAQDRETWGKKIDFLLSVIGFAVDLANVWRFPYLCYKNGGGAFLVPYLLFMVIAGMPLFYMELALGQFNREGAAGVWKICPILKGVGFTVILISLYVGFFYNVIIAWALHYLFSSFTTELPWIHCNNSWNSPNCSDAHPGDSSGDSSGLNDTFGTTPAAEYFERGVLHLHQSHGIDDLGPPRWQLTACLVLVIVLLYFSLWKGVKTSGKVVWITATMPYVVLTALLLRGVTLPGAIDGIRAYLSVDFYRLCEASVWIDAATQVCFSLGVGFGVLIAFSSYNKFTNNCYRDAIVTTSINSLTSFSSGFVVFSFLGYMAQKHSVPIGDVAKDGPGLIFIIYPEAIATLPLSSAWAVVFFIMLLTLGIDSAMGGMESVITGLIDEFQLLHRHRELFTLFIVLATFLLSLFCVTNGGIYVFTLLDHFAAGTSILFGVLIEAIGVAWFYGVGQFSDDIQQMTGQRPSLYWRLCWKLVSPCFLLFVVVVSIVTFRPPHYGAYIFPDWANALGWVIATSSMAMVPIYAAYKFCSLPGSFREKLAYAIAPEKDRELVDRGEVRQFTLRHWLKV

[6] = molecular target: 5-hydroxytryptamine receptor 4 (Homo sapiens) (UniProt Q13639); test: Inhibition of Serotonin (5-Hydroxytryptamine) 5-HT4 at 10 µM in the Eurofins-Panlabs radioligand binding assay (Eurofins_assay_272000); conditions: Cavia porcellus; Compound concentration 10.0 uM
Chain of 5-hydroxytryptamine receptor 4 (Homo sapiens) (Q13639 whole entry): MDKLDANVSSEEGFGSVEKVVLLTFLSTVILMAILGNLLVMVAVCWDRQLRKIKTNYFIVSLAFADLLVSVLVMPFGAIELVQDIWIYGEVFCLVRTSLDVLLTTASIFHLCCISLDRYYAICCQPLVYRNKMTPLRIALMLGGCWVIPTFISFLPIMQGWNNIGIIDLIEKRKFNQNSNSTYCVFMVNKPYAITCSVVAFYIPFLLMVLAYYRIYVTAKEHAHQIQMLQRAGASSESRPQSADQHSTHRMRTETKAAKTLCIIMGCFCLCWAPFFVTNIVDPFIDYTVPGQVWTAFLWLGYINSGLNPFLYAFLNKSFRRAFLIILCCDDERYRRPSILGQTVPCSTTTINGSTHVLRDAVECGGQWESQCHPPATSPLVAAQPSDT

[7] = molecular target: Neurotensin receptor type 1 (Homo sapiens, UniProt P30989); test: Neurotensin NT1 Eurofins-Panlabs radioligand binding assay; set-up: ligand concentration 0.02 nM, non-specific ligand with concentration 1 µM Neurotensin, incubation time 45 min, incubation temperature 25 °C
Chain of Neurotensin receptor type 1 (P30989 whole entry): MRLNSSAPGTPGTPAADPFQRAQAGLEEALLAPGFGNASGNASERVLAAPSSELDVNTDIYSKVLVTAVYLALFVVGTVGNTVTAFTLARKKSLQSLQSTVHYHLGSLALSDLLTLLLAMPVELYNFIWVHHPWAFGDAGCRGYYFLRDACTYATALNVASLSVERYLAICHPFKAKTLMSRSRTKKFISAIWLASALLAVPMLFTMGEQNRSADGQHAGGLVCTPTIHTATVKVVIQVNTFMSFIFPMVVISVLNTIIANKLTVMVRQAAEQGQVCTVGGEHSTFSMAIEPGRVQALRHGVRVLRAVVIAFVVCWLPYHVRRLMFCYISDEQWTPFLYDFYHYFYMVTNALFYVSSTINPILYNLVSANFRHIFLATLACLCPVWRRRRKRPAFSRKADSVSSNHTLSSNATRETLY

[8] = molecular target: Neprilysin (Homo sapiens) (UniProt P08473); test: Peptidase, Metalloproteinase, Neutral Endopeptidase Eurofins-Panlabs enzyme assay; conditions: Compound concentration 10.0 uM
Chain of Neprilysin (Homo sapiens) (P08473 whole entry): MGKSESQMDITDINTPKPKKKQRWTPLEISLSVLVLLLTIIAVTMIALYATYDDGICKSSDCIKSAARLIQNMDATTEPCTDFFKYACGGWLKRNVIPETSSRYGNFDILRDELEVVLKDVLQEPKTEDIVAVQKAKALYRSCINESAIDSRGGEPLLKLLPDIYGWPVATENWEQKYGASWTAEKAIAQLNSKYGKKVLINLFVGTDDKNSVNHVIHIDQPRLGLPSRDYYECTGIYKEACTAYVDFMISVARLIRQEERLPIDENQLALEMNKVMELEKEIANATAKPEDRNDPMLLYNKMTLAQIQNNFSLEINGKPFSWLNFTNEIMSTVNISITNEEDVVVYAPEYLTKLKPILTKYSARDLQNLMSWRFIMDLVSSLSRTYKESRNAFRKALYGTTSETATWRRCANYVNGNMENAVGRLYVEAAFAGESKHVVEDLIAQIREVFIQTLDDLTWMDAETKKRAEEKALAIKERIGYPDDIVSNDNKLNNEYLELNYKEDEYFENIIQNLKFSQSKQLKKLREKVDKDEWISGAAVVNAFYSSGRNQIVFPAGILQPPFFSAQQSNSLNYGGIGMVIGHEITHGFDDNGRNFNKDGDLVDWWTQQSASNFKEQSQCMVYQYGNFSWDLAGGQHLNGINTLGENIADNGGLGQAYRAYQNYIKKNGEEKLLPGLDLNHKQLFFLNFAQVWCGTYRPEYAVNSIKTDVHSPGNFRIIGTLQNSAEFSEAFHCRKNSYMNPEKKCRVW

Insulin receptor = Insulin receptor (Homo sapiens, UniProt P06213); test: Protein Tyrosine Kinase, Insulin Receptor Eurofins-Panlabs enzyme assay; set-up: substrate with concentration 10 µg/mL […], incubation time 60 min, incubation temperature 25 °C
Chain of Insulin receptor (P06213 28-758 limits assumed): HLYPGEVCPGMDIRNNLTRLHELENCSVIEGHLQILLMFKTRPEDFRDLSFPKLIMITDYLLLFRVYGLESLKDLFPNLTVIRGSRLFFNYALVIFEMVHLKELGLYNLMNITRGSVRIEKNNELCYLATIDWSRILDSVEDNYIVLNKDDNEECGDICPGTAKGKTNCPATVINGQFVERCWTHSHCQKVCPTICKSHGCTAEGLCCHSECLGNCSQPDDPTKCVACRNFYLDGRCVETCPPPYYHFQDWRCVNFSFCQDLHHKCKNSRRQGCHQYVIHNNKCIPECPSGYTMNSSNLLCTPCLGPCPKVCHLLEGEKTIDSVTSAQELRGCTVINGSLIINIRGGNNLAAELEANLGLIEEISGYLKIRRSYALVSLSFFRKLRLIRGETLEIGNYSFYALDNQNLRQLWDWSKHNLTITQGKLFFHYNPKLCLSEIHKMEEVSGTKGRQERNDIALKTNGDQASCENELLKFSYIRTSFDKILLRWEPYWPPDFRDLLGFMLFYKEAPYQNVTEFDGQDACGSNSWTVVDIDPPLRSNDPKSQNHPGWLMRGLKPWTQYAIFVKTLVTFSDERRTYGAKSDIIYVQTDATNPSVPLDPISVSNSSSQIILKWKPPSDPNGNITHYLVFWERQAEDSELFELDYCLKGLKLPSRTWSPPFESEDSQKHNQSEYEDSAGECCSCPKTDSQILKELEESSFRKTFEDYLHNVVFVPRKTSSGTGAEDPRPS
Chain of Insulin receptor (P06213 763-1382 limits assumed): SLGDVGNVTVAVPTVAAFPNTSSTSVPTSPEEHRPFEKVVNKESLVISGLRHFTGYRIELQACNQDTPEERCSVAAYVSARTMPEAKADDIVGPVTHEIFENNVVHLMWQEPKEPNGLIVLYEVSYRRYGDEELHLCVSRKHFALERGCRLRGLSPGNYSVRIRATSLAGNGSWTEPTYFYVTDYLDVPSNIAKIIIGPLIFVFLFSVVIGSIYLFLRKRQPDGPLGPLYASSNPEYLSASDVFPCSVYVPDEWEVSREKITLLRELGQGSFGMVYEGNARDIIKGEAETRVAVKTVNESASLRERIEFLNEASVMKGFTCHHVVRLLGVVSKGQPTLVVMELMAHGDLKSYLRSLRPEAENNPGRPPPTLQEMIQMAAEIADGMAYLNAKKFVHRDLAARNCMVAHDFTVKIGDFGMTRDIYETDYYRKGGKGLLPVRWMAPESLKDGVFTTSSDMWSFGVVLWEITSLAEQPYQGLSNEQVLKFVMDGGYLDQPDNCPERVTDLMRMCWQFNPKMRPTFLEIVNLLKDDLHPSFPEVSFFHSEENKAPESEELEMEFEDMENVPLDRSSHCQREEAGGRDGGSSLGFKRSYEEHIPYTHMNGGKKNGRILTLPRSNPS

[9] = molecular target: Galanin receptor type 2 (Homo sapiens) (UniProt O43603); test: Galanin GAL2 Eurofins-Panlabs radioligand binding assay; set-up: ligand concentration 0.02 nM; conditions: Compound concentration 10.0 uM
Chain of Galanin receptor type 2 (Homo sapiens) (O43603 whole entry): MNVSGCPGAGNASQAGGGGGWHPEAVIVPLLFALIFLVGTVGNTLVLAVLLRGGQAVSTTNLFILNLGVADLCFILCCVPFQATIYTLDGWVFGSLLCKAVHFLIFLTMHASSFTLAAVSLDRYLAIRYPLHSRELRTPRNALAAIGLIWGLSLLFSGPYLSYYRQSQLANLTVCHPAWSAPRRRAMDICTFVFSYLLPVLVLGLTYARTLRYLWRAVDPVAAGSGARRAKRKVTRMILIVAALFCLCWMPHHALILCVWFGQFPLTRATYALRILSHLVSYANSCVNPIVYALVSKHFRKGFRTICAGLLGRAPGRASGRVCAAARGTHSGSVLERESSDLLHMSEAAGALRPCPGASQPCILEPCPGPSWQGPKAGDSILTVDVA

[10] = molecular target: Inositol 1,4,5-trisphosphate-gated calcium channel ITPR1 (Homo sapiens) (UniProt Q14643); test: Inositol Trisphosphate IP3 Eurofins-Panlabs radioligand binding assay; conditions: Rattus norvegicus; Compound concentration 10.0 uM
[11] = molecular target: Glutamate NMDA receptor; GRIN1/GRIN2A (Homo sapiens) (UniProt Q05586+Q12879); test: NMDA-NR1a/NR2a Eurofins-Panlabs radioligand binding assay; assay type: protein-complex assay; conditions: Compound concentration 10.0 uM
[12] = molecular target: Somatostatin receptor type 3 (Homo sapiens) (UniProt P32745); test: Somatostatin sst3 Eurofins-Panlabs radioligand binding assay; conditions: concentration not given here
Chain of Somatostatin receptor type 3 (Homo sapiens) (P32745 whole entry): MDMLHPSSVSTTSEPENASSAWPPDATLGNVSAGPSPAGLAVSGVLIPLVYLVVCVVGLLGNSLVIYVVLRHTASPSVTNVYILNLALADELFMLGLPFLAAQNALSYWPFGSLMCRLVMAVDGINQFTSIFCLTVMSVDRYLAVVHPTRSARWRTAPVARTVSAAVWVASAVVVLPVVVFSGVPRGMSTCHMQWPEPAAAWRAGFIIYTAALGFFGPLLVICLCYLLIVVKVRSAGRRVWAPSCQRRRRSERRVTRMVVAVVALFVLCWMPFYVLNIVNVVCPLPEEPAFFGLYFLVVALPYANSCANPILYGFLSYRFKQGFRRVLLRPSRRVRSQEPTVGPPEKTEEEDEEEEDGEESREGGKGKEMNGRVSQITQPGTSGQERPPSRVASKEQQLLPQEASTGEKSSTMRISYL

[13] = molecular target: Protein kinase C iota type (Homo sapiens) (UniProt P41743); conditions: Compound concentration 1000.0 nM
[14] = molecular target: Beta-1 adrenergic receptor (Homo sapiens) (UniProt P08588); conditions: Compound concentration 10.0 uM
D(1A) dopamine receptor = D(1A) dopamine receptor (Homo sapiens, UniProt P21728); conditions: Compound concentration 10.0 uM
[15] = molecular target: Endothelin-1 receptor (Homo sapiens) (UniProt P25101); conditions: Compound concentration 10.0 uM
[16] = molecular target: Glutamate NMDA receptor (Rattus norvegicus) (UniProt P35439+Q00959+Q00960+Q00961+Q62645+Q8VHN2+Q9R1M7); conditions: Compound concentration 10.0 uM
[17] = molecular target: Kappa-type opioid receptor (Homo sapiens, UniProt P41145)
Chain of Kappa-type opioid receptor (P41145 whole entry): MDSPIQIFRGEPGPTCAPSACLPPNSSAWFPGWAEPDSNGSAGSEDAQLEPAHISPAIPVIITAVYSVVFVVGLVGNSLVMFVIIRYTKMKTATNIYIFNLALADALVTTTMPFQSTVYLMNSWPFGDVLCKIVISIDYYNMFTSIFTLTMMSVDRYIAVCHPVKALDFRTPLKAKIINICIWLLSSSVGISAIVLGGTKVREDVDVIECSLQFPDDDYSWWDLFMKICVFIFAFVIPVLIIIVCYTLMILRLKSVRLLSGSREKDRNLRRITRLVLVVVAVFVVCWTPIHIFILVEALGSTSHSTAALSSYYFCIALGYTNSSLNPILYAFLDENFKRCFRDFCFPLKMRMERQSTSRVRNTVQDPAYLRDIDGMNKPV

[18] = molecular target: T1, 5-hydroxytryptamine receptor 1A (Homo sapiens) (UniProt P08908)
T1 sequence (whole entry): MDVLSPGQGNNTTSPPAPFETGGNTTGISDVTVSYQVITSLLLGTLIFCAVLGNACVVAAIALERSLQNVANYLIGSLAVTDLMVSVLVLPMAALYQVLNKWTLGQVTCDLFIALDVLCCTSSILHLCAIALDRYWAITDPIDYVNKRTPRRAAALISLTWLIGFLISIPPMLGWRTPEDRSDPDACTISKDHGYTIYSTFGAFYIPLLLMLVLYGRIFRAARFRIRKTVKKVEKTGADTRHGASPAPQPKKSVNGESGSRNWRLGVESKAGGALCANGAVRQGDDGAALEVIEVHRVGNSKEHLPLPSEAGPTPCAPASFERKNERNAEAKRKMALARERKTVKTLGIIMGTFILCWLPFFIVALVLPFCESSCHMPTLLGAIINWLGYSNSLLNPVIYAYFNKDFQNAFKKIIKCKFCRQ

[19] = molecular target: cGMP-specific 3',5'-cyclic phosphodiesterase (Homo sapiens, UniProt O76074)
[20] = molecular target: T2, 5-hydroxytryptamine receptor 2C (Homo sapiens) (UniProt P28335); conditions: Compound concentration 10.0 uM
T2 sequence (whole entry): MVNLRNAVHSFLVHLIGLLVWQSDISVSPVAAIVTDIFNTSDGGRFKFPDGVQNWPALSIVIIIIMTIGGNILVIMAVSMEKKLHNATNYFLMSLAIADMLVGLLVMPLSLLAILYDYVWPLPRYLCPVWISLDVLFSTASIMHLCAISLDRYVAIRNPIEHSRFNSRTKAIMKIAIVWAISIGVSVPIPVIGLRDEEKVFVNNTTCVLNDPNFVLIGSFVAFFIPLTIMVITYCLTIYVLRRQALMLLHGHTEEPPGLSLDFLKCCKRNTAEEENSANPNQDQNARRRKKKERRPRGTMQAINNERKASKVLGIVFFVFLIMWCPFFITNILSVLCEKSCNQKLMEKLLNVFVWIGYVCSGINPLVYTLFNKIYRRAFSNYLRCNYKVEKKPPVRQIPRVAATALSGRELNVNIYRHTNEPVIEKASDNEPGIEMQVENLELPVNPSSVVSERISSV

Q: Which results are given for `O=C(O)c1cc(-c2ccc(C3CCNCC3)cc2)c2ccc(-c3ccc(C(F)(F)F)cc3)cc2c1` [PPTN]?
A: inhibition at 3 h, 10 µM [1]: 11% (not active); inhibition [2]: 11%; inhibition (Rattus norvegicus): 17%; inhibition [3]: 1%; IC50 [4]: 7.01 µM; Ki [4]: 4 µM; IC50 [5]: 2.31 µM; Ki [5]: 1.83 µM; inhibition [6]: 11%; IC50 [7]: 8.66 µM; Ki [7]: 6.97 µM; inhibition ([7]; Compound concentration 0.01 uM): 11%; inhibition ([7]; Compound concentration 0.1 uM): 10%; inhibition ([7]; Compound concentration 1.0 uM): -9%; inhibition ([7]; Compound concentration 10.0 uM): 69%; inhibition [8]: 1%; IC50 (Insulin receptor): 4.31 µM; inhibition (Insulin receptor; Compound concentration 0.01 uM): 1%; inhibition (Insulin receptor; Compound concentration 0.1 uM): -10%; inhibition (Insulin receptor; Compound concentration 1.0 uM): 14%; inhibition (Insulin receptor; Compound concentration 10.0 uM): 75%; inhibition [9]: 31%; inhibition [10]: 9%; inhibition [11]: 12%; inhibition [12]: 35%; residual activity [13]: 82%; inhibition [14]: 3%; inhibition (D(1A) dopamine receptor): 22%; inhibition [15]: 6%; inhibition [16]: 1%; inhibition ([17]; Compound concentration 0.1 uM): -1%; inhibition ([17]; Compound concentration 1.0 uM): 1%; inhibition ([17]; Compound concentration 10.0 uM): 63%; inhibition ([18]; Compound concentration 0.01 uM): 0%; inhibition ([18]; Compound concentration 0.1 uM): -2%; inhibition ([18]; Compound concentration 1.0 uM): 4%; inhibition ([18]; Compound concentration 10.0 uM): 64%; inhibition ([19]; Compound concentration 0.1 uM): -3%; inhibition ([19]; Compound concentration 1.0 uM): -8%; inhibition ([19]; Compound concentration 10.0 uM): 22%; inhibition ([19]; Compound concentration 100.0 uM): 72%; inhibition [20]: 20%
